Assay results as given in ChEMBL document CHEMBL1201862, “PubChem BioAssay data set” (2004).
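Assay format: 96-well plates, 48-hour exposure. GI50: concentration for 50% inhibition of growth.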 Calls of active or inactive are those of the source. Rule as the data show it: active = GI50 up to about 1.1 µM and inactive = higher.

Key:
Assay in all cases: inhibition of tumour cell growth, NCI panel, 48 h
RPMI-8226 = test system: RPMI-8226
OVCAR-4 = test system: OVCAR-4
SF-295 = test system: SF-295
CAKI-1 = test system: CAKI-1
UACC-257 = test system: UACC-257
MOLT-4 = test system: MOLT-4
NCI-H460 = test system: NCI-H460
SF-268 = test system: SF-268
DMS-114 = test system: DMS-114
786-0 = test system: 786-0
Malme-3M = test system: Malme-3M
SK-MEL-28 = test system: SK-MEL-28
SK-OV-3 = test system: SK-OV-3
CCRF-CEM = test system: CCRF-CEM
M14 = test system: M14
SNB-19 = test system: SNB-19
OVCAR-5 = test system: OVCAR-5
MDA-MB-435 = test system: MDA-MB-435
Hs-578T = test system: Hs-578T
MCF7 = test system: MCF7

Measured: GI50

CC1=C(C(=O)Nc2cccc(C(F)(F)F)c2)C(c2ccccc2F)C(C(=O)Nc2cccc(C(F)(F)F)c2)=C(C)N1
inactive: RPMI-8226 2.58 µM | OVCAR-4 3.08 µM | SF-295 6.52 µM | CAKI-1 8.57 µM | UACC-257 8.65 µM | MOLT-4 2.6 µM | NCI-H460 4.23 µM | SF-268 6.52 µM | DMS-114 3.33 µM | 786-0 6.49 µM | Malme-3M 7.08 µM | SK-MEL-28 11 µM | SK-OV-3 10.4 µM | CCRF-CEM 3.09 µM | M14 4.59 µM | SNB-19 7.16 µM | OVCAR-5 10.5 µM

CC1=NN(C(=O)Cc2ccccc2)C(=O)/C1=C\c1ccc(O)cc1
inactive: RPMI-8226 > 100 µM | OVCAR-4 > 100 µM | SF-295 > 100 µM | CAKI-1 > 100 µM | UACC-257 > 100 µM | MOLT-4 > 100 µM | NCI-H460 > 100 µM | SF-268 > 100 µM | DMS-114 > 100 µM | 786-0 > 100 µM | Malme-3M > 100 µM | SK-MEL-28 > 100 µM | SK-OV-3 > 100 µM | CCRF-CEM > 100 µM | M14 > 100 µM | SNB-19 > 100 µM | OVCAR-5 > 100 µM

CCc1cccc(CC)c1NC(=O)/C(Cl)=C(/Cl)C(=O)O
inactive: RPMI-8226 32.1 µM | OVCAR-4 17.2 µM | SF-295 > 100 µM | CAKI-1 16.8 µM | UACC-257 24.1 µM | MOLT-4 9.25 µM | NCI-H460 > 100 µM | SF-268 40.3 µM | DMS-114 23.2 µM | 786-0 > 42.1 µM | Malme-3M 19 µM | SK-MEL-28 35.3 µM | SK-OV-3 > 100 µM | CCRF-CEM 6.44 µM | M14 17.1 µM | SNB-19 > 100 µM | OVCAR-5 > 100 µM

c1ccc(-c2[nH]c(-c3ccccc3)c(-c3cnccn3)c2-c2cnccn2)cc1
inactive: RPMI-8226 82.6 µM | OVCAR-4 > 100 µM | SF-295 > 100 µM | CAKI-1 > 100 µM | UACC-257 > 100 µM | MOLT-4 > 100 µM | NCI-H460 > 100 µM | SF-268 > 100 µM | DMS-114 > 100 µM | 786-0 > 100 µM | Malme-3M > 100 µM | SK-MEL-28 > 100 µM | SK-OV-3 > 100 µM | CCRF-CEM > 100 µM | M14 > 100 µM | SNB-19 > 100 µM | OVCAR-5 > 100 µM

O=C(O)CCSC(=S)Nc1ccc([N+](=O)[O-])cc1
inactive: RPMI-8226 27.3 µM | OVCAR-4 > 56.5 µM | SF-295 40.5 µM | MDA-MB-435 24.4 µM | Hs-578T > 100 µM | CAKI-1 > 100 µM | UACC-257 22.3 µM | MOLT-4 8.38 µM | NCI-H460 > 82.6 µM | SF-268 34.5 µM | DMS-114 37.7 µM | 786-0 > 100 µM | Malme-3M 38.2 µM | SK-MEL-28 41.3 µM | SK-OV-3 > 100 µM | CCRF-CEM 23.7 µM | MCF7 40.1 µM | M14 > 85.9 µM | SNB-19 > 81.8 µM | OVCAR-5 > 100 µM

NNC(=S)N/N=C(\c1nc2ccc(Cl)cc2nc1O)C(O)c1ccc(Cl)cc1Cl (stereo not given)
inactive: RPMI-8226 > 100 µM | OVCAR-4 > 100 µM | SF-295 > 100 µM | CAKI-1 > 100 µM | UACC-257 > 100 µM | MOLT-4 > 100 µM | NCI-H460 > 100 µM | SF-268 > 100 µM | DMS-114 > 100 µM | 786-0 > 100 µM | Malme-3M > 100 µM | SK-MEL-28 > 100 µM | SK-OV-3 > 100 µM | CCRF-CEM > 100 µM | M14 > 100 µM | SNB-19 > 100 µM | OVCAR-5 > 100 µM
